Where “and” joins values, the source holds several entries; their conditions need not be identical. Equal entries are not always repeated. Calls of active or inactive are those of the source.
Key:
[1] = molecular target: T1, RNA-binding protein pos-1 (Caenorhabditis elegans, UniProt G5EF15); test: disruptors of C. elegans POS-1 RNA interaction – biochemical, fluorescence polarization, dose response (AID 1964);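 also: purified POS-1 fused to maltose binding protein made in E. coli; potency of compounds blocking POS-1 binding to fluorescent RNA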
T1 sequence (G5EF15 whole entry): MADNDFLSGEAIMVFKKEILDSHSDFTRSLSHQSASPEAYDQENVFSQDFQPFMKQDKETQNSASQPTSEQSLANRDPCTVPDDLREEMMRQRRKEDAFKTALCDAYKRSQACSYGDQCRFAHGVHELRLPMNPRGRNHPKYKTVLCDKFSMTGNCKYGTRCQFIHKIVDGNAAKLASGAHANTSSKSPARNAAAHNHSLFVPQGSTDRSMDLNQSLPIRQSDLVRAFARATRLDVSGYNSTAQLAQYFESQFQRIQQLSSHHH

[2] = molecular target: T2, Zinc finger protein mex-5 (Caenorhabditis elegans, UniProt Q9XUB2); test: potency of MEX-5 RNA-binding blockers – biochemical, C. elegans, fluorescence polarization, dose response (AID 1960)
T2 sequence (Q9XUB2 whole entry): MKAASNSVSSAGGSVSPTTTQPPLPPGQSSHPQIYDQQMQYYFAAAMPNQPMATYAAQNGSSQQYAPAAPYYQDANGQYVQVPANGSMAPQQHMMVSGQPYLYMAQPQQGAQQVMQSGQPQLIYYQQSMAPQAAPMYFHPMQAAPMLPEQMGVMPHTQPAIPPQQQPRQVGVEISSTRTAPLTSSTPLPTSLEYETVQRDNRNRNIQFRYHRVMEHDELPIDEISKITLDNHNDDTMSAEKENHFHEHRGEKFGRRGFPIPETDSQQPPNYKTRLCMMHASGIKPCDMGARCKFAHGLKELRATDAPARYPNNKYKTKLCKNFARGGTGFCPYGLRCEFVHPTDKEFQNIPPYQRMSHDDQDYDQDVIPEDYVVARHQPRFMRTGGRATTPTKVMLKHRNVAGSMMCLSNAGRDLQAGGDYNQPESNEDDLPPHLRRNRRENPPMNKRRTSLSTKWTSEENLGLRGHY

Cytochrome P450 2D6 = Cytochrome P450 2D6 (Homo sapiens, UniProt P10635);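 also: CYP2D6 member of a cytochrome P450 panel assay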
Sequence of Cytochrome P450 2D6 (P10635 whole entry): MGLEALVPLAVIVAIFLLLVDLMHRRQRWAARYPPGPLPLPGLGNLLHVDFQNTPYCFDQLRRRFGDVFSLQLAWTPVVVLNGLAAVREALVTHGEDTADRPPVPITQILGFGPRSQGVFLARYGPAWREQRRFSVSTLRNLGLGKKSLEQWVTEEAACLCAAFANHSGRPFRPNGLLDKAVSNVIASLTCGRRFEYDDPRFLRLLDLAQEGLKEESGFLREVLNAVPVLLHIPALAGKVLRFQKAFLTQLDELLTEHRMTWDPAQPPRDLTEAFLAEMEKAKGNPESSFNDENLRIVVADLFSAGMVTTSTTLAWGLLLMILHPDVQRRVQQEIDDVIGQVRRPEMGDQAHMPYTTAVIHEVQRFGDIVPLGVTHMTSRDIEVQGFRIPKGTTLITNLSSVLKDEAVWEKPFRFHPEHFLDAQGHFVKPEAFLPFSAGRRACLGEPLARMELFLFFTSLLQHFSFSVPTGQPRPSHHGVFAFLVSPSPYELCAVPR

cells = format: functional
[3] = molecular target: T3, Replicative DNA helicase DnaB (Mycobacterium tuberculosis, UniProt P9WMR3); test: DnaB intein splicing inhibitors, dose response, biochemical, cell-free fluorescence (AID 449749); format: functional
T3 sequence (P9WMR3 whole entry): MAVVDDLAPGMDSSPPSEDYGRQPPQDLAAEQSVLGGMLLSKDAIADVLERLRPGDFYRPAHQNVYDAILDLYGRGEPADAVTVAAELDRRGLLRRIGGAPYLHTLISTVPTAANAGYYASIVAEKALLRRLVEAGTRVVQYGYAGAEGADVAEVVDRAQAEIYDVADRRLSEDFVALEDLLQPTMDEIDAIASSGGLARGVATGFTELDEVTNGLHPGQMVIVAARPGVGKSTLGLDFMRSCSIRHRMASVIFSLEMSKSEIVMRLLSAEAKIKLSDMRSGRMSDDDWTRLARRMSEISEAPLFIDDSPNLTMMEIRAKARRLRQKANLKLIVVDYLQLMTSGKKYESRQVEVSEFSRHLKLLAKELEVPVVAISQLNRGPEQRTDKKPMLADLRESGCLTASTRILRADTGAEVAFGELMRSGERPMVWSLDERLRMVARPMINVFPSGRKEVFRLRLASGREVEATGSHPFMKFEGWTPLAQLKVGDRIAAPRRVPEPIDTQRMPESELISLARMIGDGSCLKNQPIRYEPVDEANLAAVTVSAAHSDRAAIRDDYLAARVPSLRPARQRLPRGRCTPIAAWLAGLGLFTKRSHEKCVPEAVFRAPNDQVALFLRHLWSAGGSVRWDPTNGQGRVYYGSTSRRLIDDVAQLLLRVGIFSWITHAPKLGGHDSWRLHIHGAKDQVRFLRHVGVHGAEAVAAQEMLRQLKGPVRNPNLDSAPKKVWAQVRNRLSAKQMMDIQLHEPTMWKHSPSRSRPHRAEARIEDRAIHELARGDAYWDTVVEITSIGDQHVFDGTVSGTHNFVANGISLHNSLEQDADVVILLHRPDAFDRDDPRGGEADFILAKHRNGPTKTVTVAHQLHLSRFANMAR

Protein RecA = molecular target: T4, Protein RecA (Mycobacterium tuberculosis, UniProt P9WHJ3); test: Fluorescence Cell-Free Homogeneous Dose Retest to Identify Inhibitors of RecA-Intein Splicing Activity. [Related pubchem assays (depositor defined):AID2097, AID2223, AID489010, AID492950]; format: functional
T4 sequence (P9WHJ3 whole entry): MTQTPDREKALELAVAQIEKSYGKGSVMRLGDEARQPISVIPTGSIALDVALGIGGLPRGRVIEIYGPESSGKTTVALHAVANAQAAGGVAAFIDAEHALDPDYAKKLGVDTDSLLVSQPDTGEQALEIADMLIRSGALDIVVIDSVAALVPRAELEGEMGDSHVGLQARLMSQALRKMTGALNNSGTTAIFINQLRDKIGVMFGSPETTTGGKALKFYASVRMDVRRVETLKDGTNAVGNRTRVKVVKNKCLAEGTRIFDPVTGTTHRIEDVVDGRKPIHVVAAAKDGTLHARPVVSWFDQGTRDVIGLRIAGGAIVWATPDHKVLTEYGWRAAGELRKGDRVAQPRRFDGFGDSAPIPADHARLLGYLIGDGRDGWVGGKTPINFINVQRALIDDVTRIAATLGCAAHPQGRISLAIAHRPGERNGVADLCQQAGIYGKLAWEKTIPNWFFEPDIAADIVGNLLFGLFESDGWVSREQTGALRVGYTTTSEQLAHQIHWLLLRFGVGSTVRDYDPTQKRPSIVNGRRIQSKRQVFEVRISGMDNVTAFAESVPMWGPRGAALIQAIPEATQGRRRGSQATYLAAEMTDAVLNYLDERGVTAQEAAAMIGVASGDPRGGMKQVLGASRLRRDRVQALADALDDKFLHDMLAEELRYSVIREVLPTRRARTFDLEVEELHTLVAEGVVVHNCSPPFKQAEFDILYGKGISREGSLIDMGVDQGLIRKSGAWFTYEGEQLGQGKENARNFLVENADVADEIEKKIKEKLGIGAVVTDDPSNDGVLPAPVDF

Cytochrome P450 2C9 = Cytochrome P450 2C9 (Homo sapiens, UniProt P11712)
Sequence of Cytochrome P450 2C9 (P11712 whole entry): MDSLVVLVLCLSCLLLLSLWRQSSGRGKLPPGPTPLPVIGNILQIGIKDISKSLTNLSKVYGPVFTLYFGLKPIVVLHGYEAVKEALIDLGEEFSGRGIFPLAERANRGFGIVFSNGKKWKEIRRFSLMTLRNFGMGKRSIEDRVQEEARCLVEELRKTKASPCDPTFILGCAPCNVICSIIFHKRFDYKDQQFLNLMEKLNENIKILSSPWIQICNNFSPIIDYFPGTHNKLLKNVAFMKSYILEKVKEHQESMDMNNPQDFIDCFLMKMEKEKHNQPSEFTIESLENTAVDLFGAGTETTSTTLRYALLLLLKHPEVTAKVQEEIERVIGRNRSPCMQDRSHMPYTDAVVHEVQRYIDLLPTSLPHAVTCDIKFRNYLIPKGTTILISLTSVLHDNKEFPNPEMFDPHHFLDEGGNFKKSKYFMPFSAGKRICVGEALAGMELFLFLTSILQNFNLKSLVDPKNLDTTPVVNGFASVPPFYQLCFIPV

## O=C(O)c1cc(Cl)c2c(c1)[C@@H]1C=CC[C@@H]1[C@H](c1ccc(S(=O)(=O)N3CCOCC3)cc1)N2
[1]
  EC50: > 300 µM (not active)
[2]
  EC50: 29.7 µM (active)

## CCc1c2c(nc3cccc(SC)c13)COC2
Cytochrome P450 2D6
  AC50: 39.8 µM (inconclusive)

## Cc1ccccc1CSCCN=C(S)Nc1ccccc1
[1]
  EC50: > 300 µM (not active)
[2]
  EC50: > 300 µM (not active)

## O=C1c2ccccc2C(=O)N1CCCCN(C(=O)c1ccc([N+](=O)[O-])cc1)c1ccc(Cl)cc1
Cytochrome P450 2D6
  AC50: 15.8 µM (inconclusive)

## COC(=O)COc1ccc2c(=O)c(-c3ccccc3)coc2c1
cells
  IC50: < 0.1 µM (active)

## CN(C)/C=C/C(=O)c1ccc2noc(-c3ccc(F)cc3)c2c1
[3]
  AC50: > 380 µM (inactive)
Protein RecA
  EC50: > 380 µM (inactive)

## Cc1cc(NCc2ccccn2)ccc1Br
Cytochrome P450 2C9
  AC50: 7.08 µM (inconclusive)

## COc1ccc2c(c1OC)C(=O)O[C@H]2[C@H]1c2cc3c(cc2CCN1C)OCO3 [1R,9S-HYDRASTINE]
Cytochrome P450 2C9
  AC50: 1.58 nM (inconclusive) and 15.8 µM (inconclusive)

## COc1ccccc1-c1cc(Nc2ccc(F)cc2)ncn1
Cytochrome P450 2D6
  AC50: 39.8 µM (inconclusive)

## Cc1cccc(NC(=O)COC(=O)CCc2c[nH]c3ccccc23)c1
cells
  IC50: 0.71 µM (active)

## N#CC(C(=O)NCc1ccco1)c1nc2ccccc2nc1N1CCOCC1 (stereo not drawn)
cells
  IC50: 49 µM (active)

## CC1C(=O)NN=C1C(=O)N/N=C/c1ccco1 (stereo not drawn)
[1]
  EC50: > 300 µM (not active)
[2]
  EC50: > 300 µM (not active)

## O=C(C/C=N/OCc1ccc(Cl)cc1Cl)c1ccc(Cl)cc1
Cytochrome P450 2D6
  AC50: 17.8 µM (inconclusive)
Cytochrome P450 2C9
  AC50: 17.8 µM (inconclusive)

## Cc1ccc2oc(=O)c3cc(C(=O)NCCCN4CCCCCC4)sc3c2c1
cells
  IC50: > 50 µM (active)

## CC1(C)N=C(SCC(=O)Nc2ccc(Cl)cc2Cl)C(c2ccccc2)=N1
[3]
  AC50: 10.7 µM (active)
Protein RecA
  EC50: 17.7 µM (active)

## O=C(Cc1ccccc1)NNC(=O)c1cnccn1
[1]
  EC50: > 300 µM (not active)
[2]
  EC50: 41.4 µM (active)

— ChEMBL document CHEMBL1201862, “PubChem BioAssay data set” (2004)
